Measured values taken from PubChem BioAssay (NCI).
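Step 1: Grow cells in 96-well plates. Step 2: Expose to compound for 48 hours at 5 concentrations. Step 3: Interpolate endpoints linearly; if unreached, use highest concentration. The concentration for 50% growth inhibition is given as GI50. TGI: total growth inhibition.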

What was measured:
Assay in all cases: inhibition of tumour cell growth, NCI panel, 48 h
786-0 renal = test system: 786-0 renal
A498 renal = test system: A498 renal
A549 NSCLC = test system: A549 NSCLC
ACHN renal = test system: ACHN renal
BT-549 breast = test system: BT-549 breast
CAKI-1 renal = test system: CAKI-1 renal
CCRF-CEM leukemia = test system: CCRF-CEM leukemia
COLO 205 colon = test system: COLO 205 colon
DU-145 prostate = test system: DU-145 prostate
EKVX NSCLC = test system: EKVX NSCLC
HCT-116 colon = test system: HCT-116 colon
HCT-15 colon = test system: HCT-15 colon
HL-60(TB) leukemia = test system: HL-60(TB) leukemia
HOP-62 NSCLC = test system: HOP-62 NSCLC
HOP-92 NSCLC = test system: HOP-92 NSCLC
HS 578T breast = test system: HS 578T breast
HT29 colon = test system: HT29 colon
IGROV1 ovarian = test system: IGROV1 ovarian
K-562 leukemia = test system: K-562 leukemia
KM12 colon = test system: KM12 colon
LOX IMVI melanoma = test system: LOX IMVI melanoma
M14 melanoma = test system: M14 melanoma
MALME-3M melanoma = test system: MALME-3M melanoma
MCF7 breast = test system: MCF7 breast
MDA-MB-231 breast = test system: MDA-MB-231 breast
MDA-MB-435 = test system: MDA-MB-435
MOLT-4 leukemia = test system: MOLT-4 leukemia
NCI-H226 lung = test system: NCI-H226 lung
NCI-H23 lung = test system: NCI-H23 lung
NCI-H460 lung = test system: NCI-H460 lung
NCI-H522 lung = test system: NCI-H522 lung
NCI/ADR-RES ovarian = test system: NCI/ADR-RES ovarian
OVCAR-3 ovarian = test system: OVCAR-3 ovarian
OVCAR-4 ovarian = test system: OVCAR-4 ovarian
OVCAR-5 ovarian = test system: OVCAR-5 ovarian
OVCAR-8 ovarian = test system: OVCAR-8 ovarian
RPMI-8226 leukemia = test system: RPMI-8226 leukemia
RXF 393 renal = test system: RXF 393 renal
SF-268 CNS = test system: SF-268 CNS
SF-295 CNS = test system: SF-295 CNS
SF-539 CNS = test system: SF-539 CNS
SK-MEL-2 melanoma = test system: SK-MEL-2 melanoma
SK-MEL-28 melanoma = test system: SK-MEL-28 melanoma
SK-MEL-5 melanoma = test system: SK-MEL-5 melanoma
SK-OV-3 ovarian = test system: SK-OV-3 ovarian
SN12C renal = test system: SN12C renal
SNB-19 CNS = test system: SNB-19 CNS
SNB-75 CNS = test system: SNB-75 CNS
SR leukemia = test system: SR leukemia
SW-620 colon = test system: SW-620 colon
T-47D breast = test system: T-47D breast
TK-10 renal = test system: TK-10 renal
U251 CNS = test system: U251 CNS
UACC-257 melanoma = test system: UACC-257 melanoma
UO-31 renal = test system: UO-31 renal

Question: With `CCOC(=O)C1=C(C)N(c2ccc(F)cc2F)[C@]2(C#N)C(O)=C(Cl)C(Cl)=C(O)[C@]12C#N` as the compound, how does the GI50 (786-0 renal) read?
Answer: > 100 µM

Question: What about the TGI (786-0 renal) of the same compound?
Answer: > 100 µM

Question: And the GI50 (A498 renal)?
Answer: > 100 µM

Question: And the TGI (A498 renal)?
Answer: > 100 µM

Question: What about the GI50 (A549 NSCLC) of the same compound?
Answer: > 100 µM

Question: And the TGI (A549 NSCLC)?
Answer: > 100 µM

Question: And the GI50 (ACHN renal)?
Answer: > 100 µM

Question: And the TGI (ACHN renal)?
Answer: > 100 µM

Question: What about the GI50 (BT-549 breast) of the same compound?
Answer: > 100 µM

Question: And the TGI (BT-549 breast)?
Answer: > 100 µM

Question: What about the GI50 (CAKI-1 renal) of the same compound?
Answer: > 100 µM

Question: What about the TGI (CAKI-1 renal) of the same compound?
Answer: > 100 µM

Question: What about the GI50 (CCRF-CEM leukemia) of the same compound?
Answer: 28.8 µM

Question: What about the TGI (CCRF-CEM leukemia) of the same compound?
Answer: > 100 µM

Question: What about the GI50 (COLO 205 colon) of the same compound?
Answer: > 100 µM

Question: And the TGI (COLO 205 colon)?
Answer: > 100 µM

Question: And the GI50 (DU-145 prostate)?
Answer: > 100 µM

Question: And the TGI (DU-145 prostate)?
Answer: > 100 µM

Question: And the GI50 (EKVX NSCLC)?
Answer: > 100 µM

Question: What about the TGI (EKVX NSCLC) of the same compound?
Answer: > 100 µM

Question: What about the GI50 (HCT-116 colon) of the same compound?
Answer: > 100 µM

Question: And the TGI (HCT-116 colon)?
Answer: > 100 µM

Question: And the GI50 (HCT-15 colon)?
Answer: > 100 µM

Question: What about the TGI (HCT-15 colon) of the same compound?
Answer: > 100 µM

Question: What about the GI50 (HL-60(TB) leukemia) of the same compound?
Answer: > 100 µM

Question: And the TGI (HL-60(TB) leukemia)?
Answer: > 100 µM

Question: And the GI50 (HOP-62 NSCLC)?
Answer: > 100 µM

Question: And the TGI (HOP-62 NSCLC)?
Answer: > 100 µM

Question: What about the GI50 (HOP-92 NSCLC) of the same compound?
Answer: 1.77 µM

Question: And the TGI (HOP-92 NSCLC)?
Answer: > 100 µM

Question: What about the GI50 (HS 578T breast) of the same compound?
Answer: > 100 µM

Question: And the TGI (HS 578T breast)?
Answer: > 100 µM

Question: And the GI50 (HT29 colon)?
Answer: > 100 µM

Question: What about the TGI (HT29 colon) of the same compound?
Answer: > 100 µM

Question: And the GI50 (IGROV1 ovarian)?
Answer: > 100 µM

Question: And the TGI (IGROV1 ovarian)?
Answer: > 100 µM

Question: And the GI50 (K-562 leukemia)?
Answer: 88 µM

Question: And the TGI (K-562 leukemia)?
Answer: > 100 µM

Question: What about the GI50 (KM12 colon) of the same compound?
Answer: > 100 µM

Question: And the TGI (KM12 colon)?
Answer: > 100 µM

Question: What about the GI50 (LOX IMVI melanoma) of the same compound?
Answer: > 100 µM

Question: What about the TGI (LOX IMVI melanoma) of the same compound?
Answer: > 100 µM

Question: And the GI50 (M14 melanoma)?
Answer: > 100 µM

Question: And the TGI (M14 melanoma)?
Answer: > 100 µM

Question: And the GI50 (MALME-3M melanoma)?
Answer: > 100 µM

Question: And the TGI (MALME-3M melanoma)?
Answer: > 100 µM

Question: And the GI50 (MCF7 breast)?
Answer: > 100 µM

Question: And the TGI (MCF7 breast)?
Answer: > 100 µM

Question: What about the GI50 (MDA-MB-231 breast) of the same compound?
Answer: > 100 µM

Question: And the TGI (MDA-MB-231 breast)?
Answer: > 100 µM

Question: What about the GI50 (MDA-MB-435) of the same compound?
Answer: > 100 µM

Question: And the TGI (MDA-MB-435)?
Answer: > 100 µM

Question: What about the GI50 (MOLT-4 leukemia) of the same compound?
Answer: > 100 µM

Question: And the TGI (MOLT-4 leukemia)?
Answer: > 100 µM

Question: What about the GI50 (NCI-H226 lung) of the same compound?
Answer: > 100 µM

Question: And the TGI (NCI-H226 lung)?
Answer: > 100 µM

Question: And the GI50 (NCI-H23 lung)?
Answer: > 100 µM

Question: What about the TGI (NCI-H23 lung) of the same compound?
Answer: > 100 µM

Question: What about the GI50 (NCI-H460 lung) of the same compound?
Answer: > 100 µM

Question: And the TGI (NCI-H460 lung)?
Answer: > 100 µM

Question: And the GI50 (NCI-H522 lung)?
Answer: > 100 µM

Question: What about the TGI (NCI-H522 lung) of the same compound?
Answer: > 100 µM

Question: And the GI50 (NCI/ADR-RES ovarian)?
Answer: 5.61 µM

Question: And the TGI (NCI/ADR-RES ovarian)?
Answer: > 100 µM

Question: What about the GI50 (OVCAR-3 ovarian) of the same compound?
Answer: > 100 µM

Question: And the TGI (OVCAR-3 ovarian)?
Answer: > 100 µM

Question: And the GI50 (OVCAR-4 ovarian)?
Answer: > 100 µM

Question: What about the TGI (OVCAR-4 ovarian) of the same compound?
Answer: > 100 µM

Question: What about the GI50 (OVCAR-5 ovarian) of the same compound?
Answer: 20.5 µM

Question: And the TGI (OVCAR-5 ovarian)?
Answer: > 100 µM

Question: What about the GI50 (OVCAR-8 ovarian) of the same compound?
Answer: > 100 µM

Question: What about the TGI (OVCAR-8 ovarian) of the same compound?
Answer: > 100 µM

Question: What about the GI50 (RPMI-8226 leukemia) of the same compound?
Answer: 27.1 µM

Question: And the TGI (RPMI-8226 leukemia)?
Answer: > 100 µM

Question: What about the GI50 (RXF 393 renal) of the same compound?
Answer: > 100 µM

Question: What about the TGI (RXF 393 renal) of the same compound?
Answer: > 100 µM

Question: And the GI50 (SF-268 CNS)?
Answer: > 100 µM

Question: And the TGI (SF-268 CNS)?
Answer: > 100 µM

Question: And the GI50 (SF-295 CNS)?
Answer: > 100 µM

Question: And the TGI (SF-295 CNS)?
Answer: > 100 µM

Question: And the GI50 (SF-539 CNS)?
Answer: > 100 µM

Question: What about the TGI (SF-539 CNS) of the same compound?
Answer: > 100 µM

Question: What about the GI50 (SK-MEL-2 melanoma) of the same compound?
Answer: > 100 µM

Question: What about the TGI (SK-MEL-2 melanoma) of the same compound?
Answer: > 100 µM

Question: What about the GI50 (SK-MEL-28 melanoma) of the same compound?
Answer: > 100 µM

Question: What about the TGI (SK-MEL-28 melanoma) of the same compound?
Answer: > 100 µM

Question: What about the GI50 (SK-MEL-5 melanoma) of the same compound?
Answer: > 100 µM

Question: What about the TGI (SK-MEL-5 melanoma) of the same compound?
Answer: > 100 µM

Question: And the GI50 (SK-OV-3 ovarian)?
Answer: > 100 µM

Question: What about the TGI (SK-OV-3 ovarian) of the same compound?
Answer: > 100 µM

Question: What about the GI50 (SN12C renal) of the same compound?
Answer: > 100 µM

Question: And the TGI (SN12C renal)?
Answer: > 100 µM

Question: What about the GI50 (SNB-19 CNS) of the same compound?
Answer: > 100 µM

Question: What about the TGI (SNB-19 CNS) of the same compound?
Answer: > 100 µM

Question: And the GI50 (SNB-75 CNS)?
Answer: > 100 µM

Question: And the TGI (SNB-75 CNS)?
Answer: > 100 µM

Question: And the GI50 (SR leukemia)?
Answer: 34.5 µM

Question: What about the TGI (SR leukemia) of the same compound?
Answer: 95.9 µM

Question: And the GI50 (SW-620 colon)?
Answer: > 100 µM

Question: And the TGI (SW-620 colon)?
Answer: > 100 µM

Question: And the GI50 (T-47D breast)?
Answer: > 100 µM

Question: And the TGI (T-47D breast)?
Answer: > 100 µM

Question: And the GI50 (TK-10 renal)?
Answer: > 100 µM

Question: And the TGI (TK-10 renal)?
Answer: > 100 µM

Question: And the GI50 (U251 CNS)?
Answer: > 100 µM

Question: What about the TGI (U251 CNS) of the same compound?
Answer: > 100 µM

Question: And the GI50 (UACC-257 melanoma)?
Answer: > 100 µM

Question: What about the TGI (UACC-257 melanoma) of the same compound?
Answer: > 100 µM

Question: What about the GI50 (UO-31 renal) of the same compound?
Answer: > 100 µM

Question: What about the TGI (UO-31 renal) of the same compound?
Answer: > 100 µM
